Literature values as cited in PMC3136501 (PLoS ONE, 2011).

Tested on: OCTs
Conditions: high-affinity interaction with OCTs; cited from earlier work

IC50 (interaction with OCTs), low nanomolar range:
Nc1ccn([C@@H]2CS[C@H](CO)O2)c(=O)n1 [Lamivudine], C[C@H](Cn1cnc2c(N)ncnc21)OCP(=O)(O)O [Tenofovir], Cc1cn([C@H]2C[C@H](N=[N+]=[N-])[C@@H](CO)O2)c(=O)[nH]c1=O [Azidothymidine], Nc1nc(=O)n([C@@H]2CS[C@H](CO)O2)cc1F [Emtricitabine], Nc1nc(NC2CC2)c2ncn([C@H]3C=C[C@@H](CO)C3)c2n1 [Abacavir]
